Measured values from US10604489B2, “Compounds for the treatment of pain” (priority 2018, dated 2020).
Where a name gives a salt, the structure may show the parent alone.

How the values were obtained:
human μ opioid receptor [1] = biological target: T1, human μ opioid receptor (Homo sapiens (Human), UniProt P35372); assay: Alternate functional activity ([35S]GTPγS binding) assay, SPA beads; type: biochemical; settings: alternate assay: [35S]GTPγS 0.020 nM, CHO cell membranes with WGA PVT SPA beads
Protocol: The [^35S]GTPγS assay measures the functional properties of a compound by quantifying the level of G-protein activation following agonist binding in studies using stably transfected cells, and is considered to be a measure of the efficacy of a compound. Membranes from CHO (Chinese Hamster Ovary) cells that stably expressed one type of the cloned human opioid receptor human were used in the experiments. The assay buffer consisted of 50 mM Tris-HCl, pH 7.4, 3 mM MgCl2, 0.2 mM EGTA, 5 μM GDP, and 100 mM NaCl. CHO cell membranes stably expressing the human p opioid receptor were pre-incubated with scintillation proximity assay beads from PerkinElmer® (WGA PVT SPA) for 30 minutes, at 8 µg membrane and […] beads in a volume of 0.1 mL per reaction. In a final volume of 0.2 mL, 11 different concentrations of each test compound were incubated with the membrane-SPA bead mixture and a final concentration of 0.020 nM [35S]GTPγS for 1.5 hours with gentle shaking. Reactions were then incubated for 5 hours. Data are the mean EC50 values ±S.E.M. EC50 values (nM) for compounds 12, 16, 19, 20, 149, 151, 152, 157, 160, 161, 164-169, 172, 173, 180-197, and 199-207 are shown in Table 1.

μ-receptor [2] = biological target: T2, μ-receptor (Homo sapiens (Human), UniProt P35372); assay: Alternate receptor binding assay, competitive displacement of [3H]DAMGO; settings: alternate assay: 0.8 nM [3H]DAMGO, 5 mM MgCl2, CHO cell membrane protein, 120 min
μ-receptor [3] = biological target: T2, μ-receptor; assay: Receptor binding, competitive displacement of [3H]DAMGO; settings: 0.25 nM [3H]DAMGO, CHO cell membrane protein, 60 min at 25° C.
Summary of the method: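 Ki derived via Cheng-Prusoff from IC50 (log-probit fit) of displacement of 0.25 nM [3H]DAMGO, 12 concentrations, from human μ-receptor in CHO cell membranes. Binding: 50 mM Tris-HCl pH 7.5, 25 °C, 60 min, 10 μM naloxone defining nonspecific, filter-bound radioactivity counted.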

Male Sprague-Dawley rats [4] = settings: maximum pCO2 within 2 hours of administration, subcutaneous, rat; for <60 mmHg @ 10X CFA MEMD: dose 10× CFA MEMD; for <60 mmHg @ 100X CFA MEMD: dose 100× CFA MEMD
Male Sprague-Dawley rats [5] = assay: animal or person; type: in vivo, rat; settings: sc; minimum dose at which maximal reversal of hind paw weight bearing (50±0.5%) was achieved; subcutaneous administration; rat; read-out: MEMD SC CFA
human μ opioid receptor [6] = biological target: T1, human μ opioid receptor; assay: Functional activity ([35S]GTPγS binding); type: biochemical; settings: [35S]GTPγS 0.080 nM, CHO cell membranes, 60 min at 30° C., filtration
Summary of the method: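 Membranes from stably transfected CHO cells (7.5 μg) incubated with 12 test-compound concentrations and 0.080 nM [35S]GTPγS in 50 mM Tris-HCl pH 7.4, 3 mM MgCl2, 0.2 mM EGTA, 3 μM GDP, 100 mM NaCl, 60 min at 30° C. Nonspecific binding defined with 10 μM GTPγS; bound label collected by filtration and scintillation counting.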

SMILES	EC50 (human μ opioid receptor [1]) [nM]	Ki (μ-receptor [2]) [nM]	Ki (μ-receptor [3]) [nM]	<60 mmHg @ 10X CFA MEMD (Male Sprague-Dawley rats [4])	<60 mmHg @ 100X CFA MEMD (Male Sprague-Dawley rats [4])	minimal effective dose (Male Sprague-Dawley rats [5]) [mg/kg]	EC50 (human μ opioid receptor [6]) [nM]
COC1(c2ccnc(C(N)=O)c2)C2CCCC1CN(C1CCC(F)(F)CC1)C2 (stereo not shown) [Compound 195]	> 75	1 to 5	–	–	–	–	–
COC1(c2cccc(C(N)=O)c2)C2CCCC1CN(C[C@H]1C[C@@H]3C[C@@H]3C1)C2 (stereo partly drawn) [Compound 152, 3-((1R,5s,9R)-3-((1R,3s,5S)-bicyclo[3.1.0]hexan-3-ylmethyl)-9-methoxy-3-azabicyclo[3.3.1]nonan-9-yl)benzamide hydrochloride]	< 10	< 1	–	–	–	–	–
COC1(c2cccc(C(N)=O)c2)C2CCCC1CN(C1C[C@@H]3C[C@@H]3C1)C2 (stereo partly shown) [Compound 199]	< 10	< 1	–	–	–	–	–
NC(=O)c1cccc(C2(OCCF)C3CCCC2CNC3)c1 (stereo not shown) [Compound 187]	10 to 75	> 5	–	–	–	–	–
NC(=O)c1cccc(C2(OCC(F)F)C3CCCC2CNC3)c1 (stereo not shown) [Compound 182]	10 to 75	> 5	–	–	–	–	–
COC1(c2cccc(C(N)=O)c2)C2CCCC1CN(CCCF)C2 [Compound 157, 3-((1R,5S,9r)-3-(3-fluoropropyl)-9-methoxy-3-azabicyclo[3.3.1]nonan-9-yl)benzamide hydrochloride]	10 to 75	< 1	–	–	–	–	–
COC1(c2ccnc(C(N)=O)c2)C2CCCC1CN(Cc1cnn[nH]1)C2.Cl [Compound 108, 4-((1R,5S,9r)-3-((1H-1,2,3-triazol-5-yl)methyl)-9-methoxy-3-azabicyclo[3.3.1]nonan-9-yl)picolinamide hydrochloride]	–	–	1 to 5	+ (resulted in a maximum pCO2 value of less than 60 mmHg within 2 hours of administration)	+ (resulted in a maximum pCO2 value of less than 60 mmHg within 2 hours of administration)	0.3	10 to 75
COC1(c2ccnc(C(N)=O)c2)C2CCCC1CN([C@H]1CCOC1)C2.Cl (stereo partly drawn) [Compound 79, 4-((1R,5S,9R)-9-methoxy-3-((R)-tetrahydrofuran-3-yl)-3-azabicyclo[3.3.1]nonan-9-yl)picolinamide hydrochloride]	–	–	1 to 5	+ (resulted in a maximum pCO2 value of less than 60 mmHg within 2 hours of administration)	− (resulted in a maximum pCO2 value of greater than 60 mmHg within 2 hours of administration)	0.3	10 to 75
COC1(c2cccc(C(N)=O)c2)C2CCCC1CN(CC1CC1)C2.Cl [Compound 22, 3-((1R,5S,9r)-3-(cyclopropylmethyl)-9-methoxy-3-azabicyclo[3.3.1]nonan-9-yl)benzamide hydrochloride]	–	–	< 1	+ (resulted in a maximum pCO2 value of less than 60 mmHg within 2 hours of administration)	− (resulted in a maximum pCO2 value of greater than 60 mmHg within 2 hours of administration)	0.1	< 10
COC1(c2cccc(C(N)=O)c2)C2CCCC1CN(CC1CCOCC1)C2.Cl [Compound 122, 3-((1R,5S,9r)-9-methoxy-3-((tetrahydro-2H-pyran-4-yl)methyl)-3-azabicyclo[3.3.1]nonan-9-yl)benzamide hydrochloride]	–	–	1 to 5	+ (resulted in a maximum pCO2 value of less than 60 mmHg within 2 hours of administration)	–	0.3	10 to 75
COC1(c2ccnc(C(N)=O)c2)C2CCCC1CN(C1CCC3(CC1)COC3)C2.O=C(O)CC(O)C(=O)O [Compound 158, 4-((1R,5S,9r)-9-methoxy-3-(2-oxaspiro[3.5]nonan-7-yl)-3-azabicyclo[3.3.1]nonan-9-yl)picolinamide (S)-2-hydroxysuccinate]	–	–	1 to 5	+ (resulted in a maximum pCO2 value of less than 60 mmHg within 2 hours of administration)	+ (resulted in a maximum pCO2 value of less than 60 mmHg within 2 hours of administration)	0.1	10 to 75
COC1(c2ccnc(C(N)=O)c2)C2CCCC1CN(CC1(F)CCOCC1)C2 (stereo not shown) [Compound 198]	–	> 5	–	–	–	–	–
